Experimental data: the Deep4Chem optical property database

Assay: solvent given as SMILES

| Compound | absorption maximum (in Cc1ccccc1) | absorption maximum (in CC#N) | absorption maximum (in ClCCl) | further results |
| --- | --- | --- | --- | --- |
| O=[N+]([O-])c1ccc(-n2c3ccccc3c3c2c2ccccc2n3-c2ccccc2)cc1 | 418 nm |  |  |  |
| Nc1nc2ccc(Br)cc2s1 |  | 269 nm | 268 nm |  |
| CCCCCCCCCCCCN1C(=O)c2c(c3ccc4cc(-c5ccc(-c6ccccc6)cc5)c(OC)cc4c3c3c2ccc2cc(-c4ccc(-c5ccccc5)cc4)c(OC)cc23)C1=O |  |  | 437 nm |  |
| CCN(CC)c1ccc2cc(/C=C/C3=CC(/C=C/c4cc5ccc(N(CC)CC)cc5oc4=O)=[O+][B-](F)(F)O3)c(=O)oc2c1 | 598 nm | 630 nm | 625 nm | absorption maximum (in CC(C)=O): 620 nm; absorption maximum (in CCOC(C)=O): 604 nm; absorption maximum (in CN(C)C=O): 641 nm; absorption maximum (in CS(C)=O): 652 nm; absorption maximum (in ClC(Cl)Cl): 615 nm |
| CC1(C)c2ccccc2N(c2ccccc2)c2ccc(-c3ccc(C(=O)c4ccc(-c5ccc6c(c5)C(C)(C)c5ccccc5N6c5ccccc5)cc4)cc3)cc21 | 377.59 nm |  |  |  |
| c1ccc(N(c2ccccc2)c2ccc3c(ccc4nc5ccc6cc(N(c7ccccc7)c7ccccc7)ccc6c5nc43)c2)cc1 | 473 nm |  | 476 nm | absorption maximum (in C1CCCCC1): 471 nm; absorption maximum (in C1CCOC1): 474 nm; absorption maximum (in CN(C)C=O): 477 nm |
| CCN1c2ccc(/C=N/Nc3ccccn3)cc2Sc2cc(/C=N/Nc3ccccn3)ccc21 | 392 nm |  | 393 nm | absorption maximum (in C1CCOC1): 392 nm; absorption maximum (in CS(C)=O): 398 nm |
| CN(C)c1cc2c(cc1F)c(=O)c1cc(F)c(N3CCCCC3)cc1n2C |  |  |  | absorption maximum (in CCO): 364 nm |
| CCCCCCCCCCCCCCCCCCOc1ccc(C#Cc2cc3nc4c(OCCCCCCCCCCCC)cc5c6cc(OCCCCCCCCCCCC)c(OCCCCCCCCCCCC)cc6c6cc(OCCCCCCCCCCCC)c(OCCCCCCCCCCCC)cc6c5c4nc3cc2C#Cc2ccc(OCCCCCCCCCCCCCCCCCC)cc2)cc1 |  |  |  | absorption maximum (in ClC(Cl)Cl): 487 nm |
| CCCCCCN1C(=O)c2cccc3c(-c4ccc(-c5cc(-c6ccc(Cl)cc6)nn5-c5ccccc5)s4)ccc(c23)C1=O |  |  | 389 nm |  |
| CCCCCCCCCCCCC(CCCCCCCCCC)Cn1c2cc(/C=C/c3nc4ccccc4s3)c3cccc4c5cccc6c(/C=C/c7nc8ccccc8s7)cc1c(c65)c2c34 (stereo unspecified) | 524 nm | 516 nm | 521 nm | absorption maximum (in C1CCCCC1): 517 nm |
| COc1ccc(C#Cc2nc3ccccc3nc2-c2ccn(-c3ccccc3)c2)cc1 |  |  | 393 nm |  |
| c1ccc(-c2nc(-c3ccccc3)nc(-c3ccc(-n4c5ccccc5c5c6c(ccc54)C4(c5ccccc5-c5ccccc54)c4ccccc4-6)cc3)n2)cc1 | 374 nm |  |  |  |
| OC1(c2ccc(-c3cccs3)s2)CCC(c2ccccc2)CC1 (stereo unspecified) |  | 309 nm |  | absorption maximum (in C1CCOC1): 313 nm; absorption maximum (in CCCCCC): 307 nm; absorption maximum (in CCO): 309 nm; absorption maximum (in OCCOCCO): 311 nm; absorption maximum (in c1ccncc1): 314 nm |
| Clc1ccc(-c2cccc3ncc(-c4ccccc4)n23)cc1 |  |  | 338 nm |  |
| COC(=O)c1cc(=O)n(C)c2cc(-c3cccc(N(C)C)c3)sc12 |  | 396 nm | 396 nm |  |
| CCCCCCCCCCCCn1cccc1/C=C/c1ccc(OCCCC)c2c(/C=C/c3cccn3CCCCCCCCCCCC)ccc(OCCCC)c12 | 375 nm |  |  |  |
| COc1ccc(C2=Cc3c4ccccc4cc[n+]3[B-](F)(F)O2)cc1 |  |  |  | absorption maximum (in ClC(Cl)Cl): 410.5 nm |
| COc1cc2c(cc1OC)C1=C[C@H](c3ccc(C)cc3)C3(C(C#N)=C(C#N)N1CC2)c1cc(Cl)ccc1-c1ccc(Cl)cc13 |  |  | 315 nm |  |
| CN(C)c1ccc2cc(C3=[O+][B-](F)(F)OC(c4ccccc4)=C3)ccc2c1 | 489 nm | 503 nm | 504 nm | absorption maximum (in C1CCOC1): 492 nm; absorption maximum (in CC(C)=O): 498 nm; absorption maximum (in CS(C)=O): 520 nm; absorption maximum (in ClC(Cl)Cl): 500 nm |
| CC1=CC(C)=[N+]2C1=C(c1ccc(C)cc1)c1c(C)cc(/C=C/c3ccc4ccc5cccc6ccc3c4c56)n1[B-]2(F)F |  |  |  | absorption maximum (in CC1CCCO1): 598 nm |
| c1ccc(N(c2ccccc2)c2ccc(-c3nc(-c4ccc(N(c5ccccc5)c5ccccc5)cc4)c4ccccc4n3)cc2)cc1 |  |  | 370 nm |  |
| CN1/C(=C\C=C\C2=C3C=CC(c4ccccc4)=[N+]3[B-](F)(F)n3c2ccc3-c2ccccc2)Sc2ccccc21 |  | 683 nm |  |  |
| CCCCC1(CCCC)c2ccccc2-c2ccc(-c3c4c(nc5ccccc35)-c3cc5c(cc3CC4)-c3nc4ccccc4c(-c4ccc6c(c4)C(CCCC)(CCCC)c4ccccc4-6)c3CC5)cc21 |  |  |  | absorption maximum (in ClC(Cl)Cl): 377 nm |
| COc1ccc(C#Cc2nc(C#Cc3ccc(OC)cc3)c(C#Cc3ccc(OC)cc3)c(C#Cc3ccc(OC)cc3)c2C#Cc2ccc(OC)cc2)cc1 |  |  | 421 nm |  |
| CC1CCC(O)(c2ccc(-c3cccs3)s2)CC1 (stereo unspecified) |  | 341 nm |  | absorption maximum (in C1CCOC1): 341 nm; absorption maximum (in CCCCCC): 341 nm; absorption maximum (in CCO): 341 nm; absorption maximum (in OCCOCCO): 345 nm; absorption maximum (in c1ccncc1): 345 nm |
